26 compounds from PubChem BioAssay AID330 (DTP/NCI, 2004) can be followed below.

This assay relates to P388 leukemia ip, CD2F1 mice, survival T/C. Briefly: NCI In Vivo Anticancer Drug Screen. Data for tumor model P388 Leukemia (intraperitoneal) in CD2F1 (CDF1) mice. As to conditions: endpoint: median survival time, higher = longer survival. Put shortly: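 Mice carrying the transplanted tumor received test compound or vehicle. Survival was recorded in each group, and the value is the treated-group measurement divided by that of the vehicle-treated control group.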

The mark [1] stands for this setting: dose: 50.0 mg/kg/injection, schedule: Q01DX009 (ip), vehicle: Klucel (hydroxypropylcellulose) (HPC).
Setting [2] is: dose: 100.0 mg/kg/injection, schedule: Q01DX009 (ip), vehicle: Klucel (hydroxypropylcellulose) (HPC).
The mark [3] stands for this setting: dose: 60.0 mg/kg/injection, schedule: Q01DX005 (ip), vehicle: Klucel (hydroxypropylcellulose) (HPC).
Where [4] appears, read: dose: 120.0 mg/kg/injection, schedule: Q01DX005 (ip), vehicle: Klucel (hydroxypropylcellulose) (HPC).
Setting [5] is: dose: 240.0 mg/kg/injection, schedule: Q01DX005 (ip), vehicle: Klucel (hydroxypropylcellulose) (HPC).
Setting [6] is: dose: 25.0 mg/kg/injection, schedule: Q01DX005 (ip), vehicle: Klucel (hydroxypropylcellulose) (HPC).
Setting [7] is: dose: 50.0 mg/kg/injection, schedule: Q01DX005 (ip), vehicle: Klucel (hydroxypropylcellulose) (HPC).
Setting [8] is: dose: 100.0 mg/kg/injection, schedule: Q01DX005 (ip), vehicle: Klucel (hydroxypropylcellulose) (HPC).
Setting [9] is: dose: 50.0 mg/kg/injection, schedule: Q04DX003 (ip), vehicle: saline with Tween-80.
Setting [10] is: dose: 50.0 mg/kg/injection, schedule: Q01DX005 (ip), vehicle: saline with Tween-80.
The mark [11] stands for this setting: dose: 50.0 mg/kg/injection, schedule: Q01DX009 (ip), vehicle: saline.
[12] abbreviates: dose: 100.0 mg/kg/injection, schedule: Q01DX009 (ip), vehicle: saline.
Where [13] appears, read: dose: 100.0 mg/kg/injection, schedule: Q01DX005 (ip), vehicle: saline with Tween-80.
Where [14] appears, read: dose: 200.0 mg/kg/injection, schedule: Q01DX005 (ip), vehicle: saline with Tween-80.
[15] abbreviates: dose: 100.0 mg/kg/injection, schedule: Q01DX001 (ip), vehicle: saline.
[16] abbreviates: dose: 200.0 mg/kg/injection, schedule: Q01DX001 (ip), vehicle: saline.

Several values for one entry are separate records, joined by “and”; a condition that tells them apart may be missing. Equal values may be shown once. Inconclusive results and toxic doses are left out.

For `CCOC(=O)c1cccc2c([N+](=O)[O-])c([N+](=O)[O-])cc(C(=O)OCC)c12`, the T/C (dose: 100.0 mg/kg/injection, schedule: Q01DX001 (ip), vehicle: saline with Tween-80) is 99 % of control; the T/C (dose: 200.0 mg/kg/injection, schedule: Q01DX001 (ip), vehicle: saline with Tween-80) was 102 % of control; the T/C (dose: 400.0 mg/kg/injection, schedule: Q01DX001 (ip), vehicle: saline with Tween-80) was 99 % of control.

Turning to `CN(C)NC(=S)Sc1ccccc1`, the T/C is, setting by setting: under setting [1], 100 % of control; under setting [2], 99 % of control.

On to `Nc1nc(=O)n(C2CC(O)C(CO)O2)cc1Br` (stereo unspecified), for which the T/C was 91 % of control (dose: 100.0 mg/kg/injection, schedule: Q04DX003 (ip), vehicle: saline); 100 % of control (dose: 200.0 mg/kg/injection, schedule: Q04DX003 (ip), vehicle: saline); 104 % of control (dose: 400.0 mg/kg/injection, schedule: Q04DX003 (ip), vehicle: saline).

Turning to `O=C(NCc1nc2ccccc2[nH]1)C(F)(F)F`, the T/C reads like this: under setting [3], 103 % of control; under setting [4], 105 % of control; under setting [5], 104 % of control.

Consider `CC(=O)C1=C(O)C(CC(C)C)NC1=O` (stereo unspecified), for which the T/C is 102 % of control under setting [6], 102 % of control under setting [7] and 101 % of control under setting [8].

As to `O=c1[nH]nc(SCc2ccccc2Cl)c(=O)[nH]1`, the T/C by setting is: under setting [6], 89 % of control; under setting [7], 89 % of control; under setting [8], 86 % of control.

On to `N#C/C(=N\Nc1cccc(C(F)(F)F)c1)C(N)=O`, for which the T/C is, setting by setting: under setting [7], 103 % of control; under setting [8], 115 % of control.

For `c1ccc2nc3c(ccc4ccccc43)cc2c1`, the T/C is 101 % of control (dose: 50.0 mg/kg/injection, schedule: Q04DX003 (ip), vehicle: olive oil, sesame oil, peanut oil); 104 % of control (dose: 91.0 mg/kg/injection, schedule: Q04DX003 (ip), vehicle: saline with Tween-80); 103 % of control (dose: 100.0 mg/kg/injection, schedule: Q04DX003 (ip), vehicle: olive oil, sesame oil, peanut oil); 101 % of control (dose: 182.0 mg/kg/injection, schedule: Q04DX003 (ip), vehicle: saline with Tween-80); 103 % of control (dose: 200.0 mg/kg/injection, schedule: Q04DX003 (ip), vehicle: olive oil, sesame oil, peanut oil); 99 % of control (dose: 364.0 mg/kg/injection, schedule: Q04DX003 (ip), vehicle: saline with Tween-80). The T/C (dose: 400.0 mg/kg/injection, schedule: Q04DX003 (ip), vehicle: olive oil, sesame oil, peanut oil) is 105 % of control.

As to `Cc1nc2nc(N)nc(N)c2nc1Sc1ccc(Cl)cc1`, the T/C was 94 % of control (dose: 25.0 mg/kg/injection, schedule: Q04DX003 (ip), vehicle: saline with Tween-80) and 90 % of control under setting [9].

Turning to `O=[N+]([O-])c1ccc(Cl)c2c([N+](=O)[O-])cccc12`, the T/C by setting is: (dose: 50.0 mg/kg/injection, schedule: Q01DX009 (ip), vehicle: saline with Tween-80) 102 % of control; (dose: 100.0 mg/kg/injection, schedule: Q01DX009 (ip), vehicle: saline with Tween-80) 110 % of control.

Turning to `CS1=C2C(=O)CC(C)(C)CC2=Nc2ccccc21` (stereo unspecified), the T/C (dose: 12.5 mg/kg/injection, schedule: Q01DX005 (ip), vehicle: saline with Tween-80) was 104 % of control; the T/C (dose: 25.0 mg/kg/injection, schedule: Q01DX005 (ip), vehicle: saline with Tween-80) was 104 % of control; the T/C under setting [10] was 99 % of control and 100 % of control.

Regarding `CCCCCCCCCCCCSSC(=S)OC(C)C`, the T/C runs as follows: (dose: 50.0 mg/kg/injection, schedule: Q01DX009 (ip), vehicle: saline + Tween-80 + alcohol) 100 % of control; (dose: 100.0 mg/kg/injection, schedule: Q01DX009 (ip), vehicle: saline + Tween-80 + alcohol) 116 % of control; (dose: 200.0 mg/kg/injection, schedule: Q01DX009 (ip), vehicle: saline + Tween-80 + alcohol) 122 % of control; (dose: 400.0 mg/kg/injection, schedule: Q01DX009 (ip), vehicle: saline + Tween-80 + alcohol) 119 % of control.

`Cc1ccc2c(C)c3c(ccc4ccccc43)c[n+]2c1`: the T/C is, setting by setting: (dose: 2.5 mg/kg/injection, schedule: Q04DX003 (ip), vehicle: other) 103 % of control; (dose: 5.0 mg/kg/injection, schedule: Q04DX003 (ip), vehicle: other) 101 % of control; (dose: 10.0 mg/kg/injection, schedule: Q04DX003 (ip), vehicle: other) 100 % of control; (dose: 20.0 mg/kg/injection, schedule: Q04DX003 (ip), vehicle: other) 104 % of control.

On to `COc1ccc(/C(C)=N/OC(=O)c2c(-c3ccccc3Cl)noc2C)cc1CN1CCOCC1`, for which the T/C by setting is: under setting [11], 94 % of control; under setting [12], 97 % of control; (dose: 200.0 mg/kg/injection, schedule: Q01DX009 (ip), vehicle: saline) 97 % of control.

Consider `[O-][n+]1c2ccccc2[n+]([O-])c2c3ccccc3[nH]c21`, for which the T/C was 95 % of control under setting [10], 95 % of control under setting [13] and 88 % of control under setting [14].

Turning to `CC(C)(C)SS(=O)(=O)C(C)(C)C`, the T/C under setting [3] was 103 % of control, the T/C under setting [4] is 106 % of control and the T/C under setting [5] was 105 % of control.

Consider `O=C1C=CC(=Nc2ccc(N(CCCl)CCCl)cc2)C=C1`, for which the T/C is, setting by setting: under setting [1], 89 % of control; under setting [2], 89 % of control.

In the case of `COC1=C(N)C(=O)c2nc(-c3ccccc3N)ccc2C1=O`, the T/C under setting [11] was 121 % of control and the T/C under setting [12] is 120 % of control.

In the case of `CN1c2ccccc2C(C)(C)C2Nc3c(C#N)cnc(N)c3C21` (stereo unspecified), the T/C under setting [9] was 96 % of control; the T/C (dose: 100.0 mg/kg/injection, schedule: Q04DX003 (ip), vehicle: saline with Tween-80) is 105 % of control; the T/C (dose: 200.0 mg/kg/injection, schedule: Q04DX003 (ip), vehicle: saline with Tween-80) was 109 % of control.

Regarding `CC(C)c1ccc(C(=O)C2C(=O)C=C(c3ccc(C(C)C)cc3)OC2=O)cc1` (stereo unspecified), the T/C under setting [15] is 105 % of control; the T/C under setting [16] was 108 % of control; the T/C (dose: 400.0 mg/kg/injection, schedule: Q01DX001 (ip), vehicle: saline) was 118 % of control.

Turning to `CN(C)C[C@@H]1OCCOCCO[C@@H](CN(C)C)[C@H](CN(C)C)OCCOCCO[C@H]1CN(C)C`, the T/C runs as follows: (dose: 50.0 mg/kg/injection, schedule: Q01DX005 (ip), vehicle: saline) 98 % of control; (dose: 100.0 mg/kg/injection, schedule: Q01DX005 (ip), vehicle: saline) 88 % of control; (dose: 200.0 mg/kg/injection, schedule: Q01DX005 (ip), vehicle: saline) 90 % of control.

Consider `O=S(=O)(Cc1ccccc1)C(c1ccccc1)S(=O)(=O)Cc1ccccc1`, for which the T/C reads like this: under setting [1], 96 % of control; under setting [2], 91 % of control; (dose: 200.0 mg/kg/injection, schedule: Q01DX009 (ip), vehicle: Klucel (hydroxypropylcellulose) (HPC)) 100 % of control.

In the case of `Cc1cc2c(cc1C)C(=O)C(CN1CCCCC1)CO2` (stereo unspecified), the T/C under setting [15] is 107 % of control and the T/C under setting [16] was 104 % of control.

In the case of `CC1C2(c3ccccc3)C(C(=O)c3ccccc3)NC(c3ccccc3)C12c1ccccc1` (stereo unspecified), the T/C is, setting by setting: under setting [10], 87 % of control; under setting [13], 87 % of control.

With `CCC1=C[C@H]2CN(CCc3c([nH]c4ccccc34)[C@@](OC(C)=O)(c3cc4c(cc3OC)N(C)[C@H]3[C@@](O)(C(=O)NCCSc5ccccc5)[C@H](O)[C@]5(CC)C=CCN6CC[C@]43[C@@H]65)C2)C1`, the T/C by setting is: (dose: 0.5 mg/kg/injection, schedule: Q01DX001 (ip), vehicle: water) 107 % of control; (dose: 8.0 mg/kg/injection, schedule: Q01DX001 (ip), vehicle: water) 174 % of control; (dose: 16.0 mg/kg/injection, schedule: Q01DX001 (ip), vehicle: water) 163 % of control and 184 % of control.

As to `CCN(CC)CCNc1ccc(CO)c2oc3ccc(OS(=O)(=O)c4ccc(C)cc4)cc3c(=O)c12`, the T/C was 99 % of control under setting [10], 106 % of control under setting [13] and 122 % of control under setting [14].
